The subject of test [1] is iTRIM37 KO RPE1 cells (PLK4 inhibition). The format is cell-based. To be noted: centrinone 100 or 150 nM, before TRIM37 knockout with doxycycline.
The subject of a further test is iTRIM37 KO RPE1 cells. The test is classed as cell-based. To be noted: centrinone pretreatment, then TRIM37 knockout with doxycycline.

Consider one compound from publication PMC13477270 (Nature structural & molecular biology, 2025).

With `COc1c(Nc2cc(C)[nH]n2)nc(Sc2ccc(S(=O)(=O)Cc3cccc([N+](=O)[O-])c3F)cc2F)nc1N1CCOCC1` [centrinone], the centrosome depletion result in test [1] is listed as “depleted centrosomes”. In addition, the “frequency of centrobin condensate formation after centrosome loss” value in the test on iTRIM37 KO RPE1 cells is recorded as “at a frequency similar to that in constitutive TRIM37Δ cells with centrosomes”.
